Patent publication US20090054392A1, “NAPHTHYLPYRIMIDINE, NAPHTHYLPYRAZINE AND NAPHTHYLPYRIDAZINE ANALOGS AND THEIR USE AS AGONISTS OF THE WNT-BETA-CATENIN CELLULAR MESSAGING SYSTEM” (Wyeth, priority 2007, published 2009)

How the values were obtained:
Dkk1-LRP5-TCF-Luciferase [1] = tested on: Dkk1-LRP5-TCF-Luciferase
Dkk1-LRP5-TCF-Luciferase [2] = test: Functional Dkk1-LRP5-TCF-Luciferase Assay in U2OS Cells

Q: For “6-{2-[4-(aminomethyl)piperidin-1-yl]pyrimidin-4-yl}-2-naphthyl acetate”, which “B = TCF ACTIVITY/DMSO CONTROL Fold induction @ 2.0 uM” value (Dkk1-LRP5-TCF-Luciferase [1]; 2 µM) is on record?
A: 1.435 fold

Q: And the “C = TCF ACTIVITY/DMSO CONTROL Fold induction @ 20.0 uM” value (Dkk1-LRP5-TCF-Luciferase [1]; 20 µM)?
A: 1.995 fold

Q: What does the source list for `OC[C@H]1CCCN(c2nccc(-c3ccc4ccccc4c3)n2)C1` [{(3S)-1-[4-(2-naphthyl)pyrimidin-2-yl]piperidin-3-yl}methanol]?
A: fold induction at 2 µM (Dkk1-LRP5-TCF-Luciferase [2]; Homo sapiens, U2OS, read-out: B = TCF ACTIVITY/DMSO CONTROL Fold induction @ 2.0 uM, 2.0 uM compound): 2.8; fold induction at 20 µM (Dkk1-LRP5-TCF-Luciferase [2]; Homo sapiens, U2OS, read-out: C = TCF ACTIVITY/DMSO CONTROL Fold induction @ 20.0 uM, 20.0 uM compound): 1.81; A = MAX FOLD Induction/DMSO CONTROL (Dkk1-LRP5-TCF-Luciferase [2]; maximum fold induction over DMSO control): 1.840 fold
